For data set [1], the system named is E. coli ML35p. Kind of data set: Chromogenic bacteriolytic plate assay. Type of data set: cell-based. Conditions: E. coli ML35p (FIG. 6). The procedure: In order to investigate the lytic activity of the analogues for bacterial membrane, chromogenic bacteriolytic plate assay was conducted using E. coli ML35p containing a chromosomal IPTG-inducible β-galactosidase gene (Mardones, G., Venegas, A. Chromogenic plate assay distinguishing bacteriolytic from bacteriostatic activity of an antibiotic agent. J Microbiol Methods. 2000, 40(3), 199-206). After inoculating 2 mL of E. coli ML35p to TSB and culturing at 37° C. for 16-18 hours, a mixture of 50 μL of the cultured microorganism solution, 10 μL of 1 mM IPTG and 50 μL of 50 mg/mL X-gal was poured onto TSB containing 0.8% agarose at 42° C. the next day. After boring a well on the solidified plate, 5 μL of each peptide analogue solution was introduced and incubation was conducted for 3 hours. Then, after pouring 2×TSB containing 10 mL of 1.5% agarose to the plate and solidifying, incubation was conducted again for 16-18 hours. After the incubation, the size (diameter) of a clearing zone and the presence or absence of a blue line at the edge portion were investigated.

In data set [2] the test system is S. epidermidis KCTC1917. In words: Ultrasensitive radial diffusion assay (URDA), antimicrobial activity. Type of data set: cell-based, Staphylococcus epidermidis. The note with it: S. epidermidis KCTC1917, Gram +. The protocol:
(§1) Four species of Gram positive bacteria (Bacillus subtilis, Staphylococcus epidermidis, […] and Propionibacterium acnes), five species of Gram negative bacteria (E. coli D31, E. coli ML35p, Shigella flexneri, Pseudomonas aeruginosa and Vibrio parahaemolyticus) and one yeast species (Candida albicans) were used for experiments. The antimicrobial activity was measured by ultrasensitive radial diffusion assay (URDA) using two layers of media of different concentrations. First, the microorganisms were pre-cultured in each medium for 18 hours and the concentration of the microorganisms was adjusted to 84% T (≈1×10^8 CFU/mL) using a colorimeter (Product No. 52-1210, BioMerieux, Inc., USA). Then, 0.5 mL of the diluted microorganism solution was added to an underlay gel containing 9.5 mL of 0.03% TSB, 1% type I agarose and 10 mM phosphate buffer (PB; pH 6.5) and plated and solidified on a plate after mixing well. After boring a well with a diameter of 2.5 mm on the solidified plate using a punch, 5 μL of each analogue solution was introduced. All the analogues were dissolved in 5 μL of 0.01% acetic acid to avoid any effect of solvent. After the analogue permeated into the medium, the microorganisms were cultured for 3 hours and an overlay gel containing 10 mL of 6% TSB, 1% type I agarose and 10 mM phosphate buffer (pH 6.5) was poured and solidified. Then, the microorganisms were cultured again for 18 hours at the same temperature. Next day, the antimicrobial activity was determined by measuring the size (diameter) of a clear zone formed around the well. Piscidin 1, an antimicrobial peptide derived from the mast cells of a hybrid striped bass, was used as a control.

Data set [3] relates to C. albicans. The description is as above. Type of data set: cell-based, Candida albicans. The procedure:
as §1

Data set [4] relates to Propionibacterium acnes KCTC11946. Described as above. Type of data set: cell-based. The note with it: Propionibacterium acnes KCTC11946, Gram +. The protocol:
as §1

In data set [5] the test system is E. coli D31. The data set is described as above. Format: cell-based. The note with it: E. coli D31, Gram −. The procedure:
as §1

The subject of data set [6] is E. coli ML35p. The data set is described as above. Type of data set: cell-based. Conditions: Gram −. The procedure:
as §1

The subject of data set [7] is Shigella flexneri KCTC2009. The data set is described as above. Format: cell-based. The note with it: Shigella flexneri KCTC2009, Gram −. The protocol: as §1
The test system of data set [8] is Vibrio parahaemolyticus KCCM42264. The data set is described as above. Format: cell-based. The procedure:
as §1

For data set [9], the system named is P. aeruginosa KCTC2004. Described as above. Format: cell-based, Pseudomonas aeruginosa. The note with it: P. aeruginosa KCTC2004, Gram −. The procedure:
as §1

The test system of data set [10] is S. mutans KCCM40105. The description is as above. The note with it: S. mutans KCCM40105, Gram +. Type of data set: cell-based, Streptococcus mutans. The procedure:
as §1

The subject of data set [11] is B. subtilis KCTC1021. The data set is described as above. Type of data set: cell-based, Bacillus subtilis. Conditions: B. subtilis KCTC1021, Gram +. The procedure:
as §1

For data set [12], the system named is human red blood cells. Format: cell-based. The procedure: Hemolytic activity was measured using human red blood cells. After adding to human blood an equal amount of phosphate buffered saline (PBS, 50 mM sodium phosphate, 150 mM NaCl, pH 7.4), mixing and centrifuging at 8000×g and 4° C. for 1 minute, the supernatant was removed and the remaining red blood cells were washed 3 times. The red blood cells were added to PBS to a concentration of 3% hematocrit. In order to measure the hemolytic activity, 90 μL of the 3% hematocrit was introduced to an e-tube and then 10 μL of each analogue solution (×10) was added. After incubation of each e-tube at 37° C. for 1 hour, centrifugation was performed at 13,000×g and 4° C. for 10 minutes. After taking 70 μL from each supernatant and transferring to a 96-well microtiter plate, release of hemoglobin was measured at 405 nm. Triton X-100 (0.1%) was used as a control group for 100% lysis of red blood cells and the hemolytic activity was calculated according to the following equation. % Hemolysis=[(Abs 405 nm in the peptide solution−Abs 405 nm in buffer)/(Abs 405 nm in 0.1% Triton X-100−Abs 405 nm in buffer)]×100

The mark [13] stands for this setting: C. albicans KCCM42264 (as printed in Table 2), yeast.

Ends that are not written are not given here.

For the compound `[H]/N=C(/N)N[C@H]1[C@H](O)[C@@H](O)[C@H](O[C@@H]2O[C@@H](C)[C@](O)(C=O)[C@H]2O[C@@H]2O[C@@H](CO)[C@H](O)[C@@H](O)[C@@H]2NC)[C@@H](N/C(N)=N\[H])[C@@H]1O` [streptomycin], the “bacteriolytic activity: blue line at the edge portion of the clearing zone” value in data set [1] is reported as “showed a blue line at the edge portion”.
Turning to “AAWKLLKALAKA-NH2 [SEQ ID NO 1, AAWKLLKALAKA]”, the Minimal effective concentration in data set [2] came out at 17.3 µg/mL; in [3] (setting [13]), 42.0 µg/mL; in [4] it was 25.0 µg/mL; in [5], 22.0 µg/mL; in [6], 23.0 µg/mL; in data set [7] it was 28.0 µg/mL. Also, the Minimal effective concentration in data set [8] came to 26.3 µg/mL; in data set [9] it was 36.0 µg/mL; in data set [10] it was 20.3 µg/mL; in data set [11], 20.0 µg/mL.
In the case of “KAAAKAAKAA-NH2 (C-terminus assumed) [SEQ ID NO 6, KAAAKAAKAA]”, the Minimal effective concentration in [2] was greater than 50.0 µg/mL; in data set [3] (C. albicans KCTC7965, yeast) it was greater than 50.0 µg/mL; in data set [4], greater than 50.0 µg/mL; in [5] it was greater than 50.0 µg/mL; in [6] it was greater than 50.0 µg/mL; in data set [7], greater than 50.0 µg/mL. In addition, the Minimal effective concentration in data set [8], in [9], in data set [10] and in data set [11] was greater than 50.0 µg/mL in each case.
For the compound “KLALKLLKLL-NH2 [SEQ ID NO 5, KLALKLLKLL]”, the Minimal effective concentration in data set [2] turned out to be 16.4 µg/mL; in [3] (C. albicans KCTC7965, yeast) it was 14.4 µg/mL; in data set [4], 16.6 µg/mL; in data set [5], 17.5 µg/mL; in data set [7] it was 17.9 µg/mL; in [8], 8.1 µg/mL. In addition, the Minimal effective concentration in data set [9] was 19.9 µg/mL; in [10], 10.5 µg/mL; in data set [11], 15.2 µg/mL.
Consider “KLLKKLLKLL-NH2 [SEQ ID NO 9, KLLKKLLKLL]”, for which the Minimal effective concentration was determined as 14.0 µg/mL in [2]; 14.0 µg/mL in data set [3] (C. albicans KCTC7965, yeast); 18.5 µg/mL in [4]; 18.9 µg/mL in [5]; 17.2 µg/mL in data set [6]; 15.4 µg/mL in data set [7]. Moreover, the Minimal effective concentration amounted to 9.5 µg/mL in data set [8], 17.8 µg/mL in [9], 9.0 µg/mL in [10] and 15.7 µg/mL in data set [11].
For the compound “KLLLKLLKKLL-NH2 [SEQ ID NO 8, KLLLKLLKKLL]”, the Minimal effective concentration in data set [2] is 9.6 µg/mL; in data set [3] (C. albicans KCTC7965, yeast), 11.8 µg/mL; in data set [4], 12.3 µg/mL; in data set [5], 14.2 µg/mL; in [6], 9.8 µg/mL; in data set [7], 10.7 µg/mL. Moreover, the Minimal effective concentration came out at 7.1 µg/mL in data set [8], 12.5 µg/mL in [9], 7.4 µg/mL in [10] and 10.3 µg/mL in data set [11].
For the compound “KLLLKLLKLL-NH2 [SEQ ID NO 7, KLLLKLLKLL]”, the Minimal effective concentration in data set [2] was found to be 8.8 µg/mL; in data set [3] (C. albicans KCTC7965, yeast), 12.1 µg/mL; in data set [4], 11.9 µg/mL; in data set [5], 13.2 µg/mL; in data set [6], 8.8 µg/mL; in [7], 10.4 µg/mL. For the same compound, the Minimal effective concentration in data set [8] came out at 6.8 µg/mL; in [9] it was 11.2 µg/mL; in [10] it was 7.8 µg/mL; in [11] it was 11.2 µg/mL.
KWLLKLLKKL [SEQ ID NO 10, KWLLKLLKKL]: the “hemolytic activity (in words, FIG. 4)” value in data set [12] is “good hemolytic activity”.
With “LKWLLKLLKLK-NH2 [SEQ ID NO 11, LKWLLKLLKLK]”, the Minimal effective concentration in data set [2] stood at 16.0 µg/mL; in data set [3] (C. albicans KCTC7965, yeast) it was 10.0 µg/mL; in [4], 13.1 µg/mL; in data set [5] it was 14.1 µg/mL; in data set [6], 15.0 µg/mL; in [7] it was 11.2 µg/mL. The Minimal effective concentration was determined as 9.0 µg/mL in data set [8], 8.7 µg/mL in data set [9], 12.0 µg/mL in data set [10] and 12.1 µg/mL in [11].
With LLWKLLKKL [SEQ ID NO 4, LLWKLLKKL], the “hemolytic activity (in words, FIG. 4)” value in data set [12] is “good hemolytic activity”.
On to “LLWKLLKKLLK-NH2 [SEQ ID NO 3, LLWKLLKKLLK]”, for which the Minimal effective concentration was 17.2 µg/mL in data set [2]; 15.0 µg/mL in [3] (setting [13]); 14.5 µg/mL in data set [4]; 19.4 µg/mL in data set [5]; 13.8 µg/mL in data set [6]; 10.0 µg/mL in [7]. Further, the Minimal effective concentration came to 9.1 µg/mL in [8], 15.2 µg/mL in [9], 15.8 µg/mL in data set [10] and 14.0 µg/mL in [11].
In the case of “LLWKLLKLLLK-NH2 [SEQ ID NO 2, LLWKLLKLLLK]”, the Minimal effective concentration in data set [2] came out at 18.4 µg/mL; in data set [3] (setting [13]), 17.0 µg/mL; in data set [4], 18.0 µg/mL; in data set [5] it was 16.2 µg/mL; in [6], 12.1 µg/mL; in data set [7] it was 11.6 µg/mL. In addition, the Minimal effective concentration in [8] is 14.0 µg/mL; in data set [9] it was 14.2 µg/mL; in [10], 16.3 µg/mL; in data set [11] it was 16.0 µg/mL.

For the origin of these results see US10077293B2, “Antimicrobial peptide analogues derived from abalone (Haliotis discus) and antimicrobial pharmaceutical composition containing the same” (priority 2016, dated 2018).
